# According to patent US8673942B2, “Fused ring compounds and use thereof” (Takeda Pharmaceutical Company Limited, priority 2008, dated 2014):
row,melting point [°C],SMILES
1,100 to 101,"COCc1ccc(Oc2cc(OC(C)C)c3[nH]c(C4=NCC(CC(=O)NC5CC5)S4)cc3c2)cn1 (centres unmarked) [Example 72, N-Cyclopropyl-2-{2-[5-{[6-(methoxymethyl)pyridin-3-yl]oxy}-7-(1-methylethoxy)-1H-indol-2-yl]-4,5-dihydro-1,3-thiazol-5-yl}acetamide]"
2,200 to 201,"COc1cc(Oc2ccc(S(C)(=O)=O)nc2)cc2cc(C3=NCC(CC(=O)NCC(C)(C)O)S3)[nH]c12 (centres unmarked) [Example 73, N-(2-Hydroxy-2-methylpropyl)-2-[2-(7-methoxy-5-{[6-(methylsulfonyl)pyridin-3-yl]oxy}-1H-indol-2-yl)-4,5-dihydro-1,3-thiazol-5-yl]acetamide]"
3,248 to 249,"COc1cc(Oc2ccc(S(C)(=O)=O)nc2)cc2cc(C3=NCC(CC(=O)NC4CC4)S3)[nH]c12 (centres unmarked) [Example 76, N-Cyclopropyl-2-[2-(7-methoxy-5-{[6-(methylsulfonyl)pyridin-3-yl]oxy}-1H-indol-2-yl)-4,5-dihydro-1,3-thiazol-5-yl]acetamide]"
4,236 to 237,"CCNC(=O)CC1CN=C(c2cc3cc(Oc4ccc(S(C)(=O)=O)nc4)cc(OC)c3[nH]2)S1 (centres unmarked) [Example 77, N-Ethyl-2-[2-(7-methoxy-5-{[6-(methylsulfonyl)pyridin-3-yl]oxy}-1H-indol-2-yl)-4,5-dihydro-1,3-thiazol-5-yl]acetamide]"
5,138 to 139,"COCC(C)Oc1cc(Oc2ccc(S(C)(=O)=O)nc2)cc2cc(C3=NCC(CCO)S3)[nH]c12 (centres unmarked) [Example 84, 2-{2-[7-(2-Methoxy-1-methylethoxy)-5-{[6-(methylsulfonyl)pyridin-3-yl]oxy}-1H-indol-2-yl]-4,5-dihydro-1,3-thiazol-5-yl}ethanol]"
6,131 to 132,"COCC(C)Oc1cc(Oc2ccc(S(C)(=O)=O)nc2)cc2cc(C3=NCC(CC(N)=O)S3)[nH]c12 (centres unmarked) [Example 86, 2-{2-[7-(2-Methoxy-1-methylethoxy)-5-{[6-(methylsulfonyl)pyridin-3-yl]oxy}-1H-indol-2-yl]-4,5-dihydro-1,3-thiazol-5-yl}acetamide]"
7,107 to 109,"CNC(=O)CC1CN=C(c2cc3cc(Oc4ccc(S(C)(=O)=O)nc4)cc(OC(C)COC)c3[nH]2)S1 (centres unmarked) [Example 87, 2-{2-[7-(2-Methoxy-1-methylethoxy)-5-{[6-(methylsulfonyl)pyridin-3-yl]oxy}-1H-indol-2-yl]-4,5-dihydro-1,3-thiazol-5-yl}-N-methylacetamide]"
8,109 to 112,"COCC(C)Oc1cc(Oc2ccc(S(C)(=O)=O)cc2)cc2cc(C3=NCC(C(OC)OC)S3)[nH]c12 (centres unmarked) [Example 88, 2-[5-(Dimethoxymethyl)-4,5-dihydro-1,3-thiazol-2-yl]-7-(2-methoxy-1-methylethoxy)-5-[4-(methylsulfonyl)phenoxy]-1H-indole]"
9,160 to 161,"COCCOc1c(F)c(Oc2ccc(S(C)(=O)=O)nc2)cc2cc(C3=NCC(CCO)S3)[nH]c12 (centres unmarked) [Example 90, 2-{2-[6-Fluoro-7-(2-methoxyethoxy)-5-{[6-(methylsulfonyl)pyridin-3-yl]oxy}-1H-indol-2-yl]-4,5-dihydro-1,3-thiazol-5-yl}ethanol]"
10,151 to 152,"CNC(=O)CC1CN=C(c2cc3cc(Oc4ccc(S(C)(=O)=O)nc4)c(F)c(OCCOC)c3[nH]2)S1 (centres unmarked) [Example 92, 2-{2-[6-Fluoro-7-(2-methoxyethoxy)-5-{[6-(methylsulfonyl)pyridin-3-yl]oxy}-1H-indol-2-yl]-4,5-dihydro-1,3-thiazol-5-yl}-N-methylacetamide]"
11,143 to 144,"COCCOc1c(F)c(Oc2ccc(S(C)(=O)=O)nc2)cc2cc(C3=NCC(CC(N)=O)S3)[nH]c12 (centres unmarked) [Example 93, 2-{2-[6-Fluoro-7-(2-methoxyethoxy)-5-{[6-(methylsulfonyl)pyridin-3-yl]oxy}-1H-indol-2-yl]-4,5-dihydro-1,3-thiazol-5-yl}acetamide]"
